Source: patent US20200270225A1, “Chiral Diacylhydrazine Ligands for Modulating the Expression of Exogenous Genes via an Ecdysone Receptor Complex” (Intrexon Corporation, priority 2007, published 2020)

Columns and labels:
[1] = Solubility in pharmaceutical excipients, Assay 1 (qualitative); assay type: physicochemical
Protocol: The solubility of micronized R enantiomer and racemate of 2-Ethyl-3-methoxy-benzoic acid N′-(1-tert-butyl-butyl)-N′-(3,5-dimethyl-benzoyl)-hydrazide was assessed qualitatively in commercially-available excipients (FIG. 9). Initial solutions/suspensions of 10 mg/g (test article/excipient) in glass vials were prepared by sonication at room temperature for 15 minutes with swirling for 30 seconds at 5 minute intervals, followed by heating in an aluminum block at 50° C. for 12 minutes with swirling for 30 seconds at 3 minute intervals. Based on the appearance of this initial 10 mg/g excipient sample, a 2-4 point concentration continuum was scanned by up or down sampling at several of the following points: 5, 10, 15, 20, 30, 50 mg/g (test article/excipient). […] Photos of several of the preparations in clear glass vials were taken (not shown).

[2] = Solubility in aqueous polysorbate 80, Assay 4; assay type: physicochemical
From the text: Equilibrium solubility in formulation excipients and biological fluids influences drug bioavailability, although kinetics of dissolution may also be a limiting factor in determining bioavailability. The solubilities of R enantiomer and racemate of 2-ethyl-3-methoxy-benzoic acid N′-(1-tert-butyl-butyl)-N′-(3,5-dimethyl-benzoyl)-hydrazide were established quantitatively in aqueous preparations of the pharmaceutical surfactant polysorbate 80 and then the intrinsic dissolution rate of compacted test substance was observed. Mixtures of racemate and R enantiomer in 0.5%, 1%, and 1.5% polysorbate 80 solutions were prepared by addition of 20+/−1 mg test substance in a 2 mL Eppendorf vial, followed by 500 mg polysorbate solution. The mixture was bead-beaten for 120 second, shaken at 25° C. for 16 to 24 hours, and filtered using a Spin-X (0.2 μM). The pH of the filtrate was recorded. The concentration of test substance in the filtrate was measured by quantitative HPLC analysis (FIG. 12). The R enantiomer is 2-3× more soluble in 1.0 and 1.5% polysorbate 80 solutions.

Caco-2 cell monolayers = test: Bidirectional permeability through Caco-2 cell monolayers; assay type: in vitro ADME
Protocol: The test compounds were prepared as 5 μM in HBSSg with a maximum DMSO concentration <1%. Confluent monolayers of Caco-2 cells, 21 to 28 days old were prepared. The receiver well was prepared with 1% BSA in modified Hanks buffer HBSSg, and the apical and basolateral sides of Caco-2 cell were maintained at pH 7.4±0.2. Two monolayers were dosed in each direction (N=2): the apical side was dosed for (A→B) assessment and the basolateral side was dosed for (B→A) assessment. The test compound concentration was measured for both apical and basolateral sides at a time point of 120 minutes using a generic LC/MS/MS method with a minimum 4 point calibration curve. The values in FIG. 13 are: the percent recovery of the test compound from Transwell® wells containing Caco-2 cell monolayers; apparent permeability (Papp) in both directions; efflux ratio (Papp B→A)/(Papp A→B); absorption potential of a test compound classified as either Low or High; efflux classification is significant when efflux ≥3.0 and Papp (B→A)≥1.0×10-6 cm/s. […] Also, the efflux rate for the R enantiomer is lower.

B16 melanoma = test: Anti-tumor efficacy with intratumoral transduced DCs in B16 melanoma mouse model; assay type: in vivo, C57/BL6 mice
Protocol: A comparative analysis of various administration routes and doses of (R)-2-ethyl-3-methoxy-benzoic acid N′-(1-tert-butyl-butyl)-N′-(3,5-dimethylbenzoyl)-hydrazide on the anti-tumor efficacy of intra-tumorally delivered DCs transduced with an adenoviral vector encoding murine interleukin-12p70 (DC-SP1(IL-12p70)) were carried out in a B16 melanoma mouse model. […] Optimal anti-tumor effects occurred at ≥30 mg/kg (R)-2-ethyl-3-methoxy-benzoic acid N′-(1-tert-butyl-butyl)-N′-(3,5-dimethyl-benzoyl)-hydrazide dose administered with (DC-SP1(IL-12p70)) therapy.
This drug dependent effect was associated with: transgene expression in the tumor and DLN; prolonged Ad-DCs survival in the tumor microenvironment; migration and persistence of AdDCs in the DLN; and induction of anti B16 CD8+ T cells.
When tumor-free animals were re-challenged, on day 50 (post-initial tumor inoculation), these animals were refractory to B16 melanoma, but not MC38 colon carcinoma, progression.

SMILES: CCC[C@@H](N(NC(=O)c1cccc(OC)c1CC)C(=O)c1cc(C)cc(C)c1)C(C)(C)C [Example 1, (R)-3,5-Dimethyl-benzoic Acid N-(1-tert-butyl-butyl)-N′-(2-ethyl-3-methoxy-benzoyl)-hydrazide]
- solubility in pharmaceutical excipients (qualitative) ([1]; all tested excipients except neat polysorbate 80, 5-50 mg/g): more soluble than racemate
- solubility in neat polysorbate 80 (qualitative) ([1]; neat polysorbate 80): comparably soluble
- solubility relative to racemate ([2]; 1.0 and 1.5% polysorbate 80 solutions, 25° C.): 2-3 ×
- solubility of racemate and R enantiomer compared ([2]; deionized water and 0.5% polysorbate 80): comparable
- efflux rate, compared (Caco-2 cell monolayers; Caco-2): lower
- apparent permeability (Papp), compared (Caco-2 cell monolayers; Caco-2, A→B and B→A, 5 μM, 120 minutes): more permeable than the racemate in both directions
- protective immunity on tumor re-challenge (B16 melanoma; 10^7 AdDCs plus 13 day ligand treatment, re-challenge day 50): protective immunity that was tumor-specific
- tumor regression and animal survival (B16 melanoma; intratumoral AdDCs carrying murine IL-12, systemic ligand within 48 hours following AdDCs injection): complete regression of tumor and prolonged animal survival
- dose for optimal anti-tumor effects (B16 melanoma; with DC-SP1(IL-12p70) therapy): ≥ 30 mg/kg
- anti-tumor efficacy (B16 melanoma; with DC-SP1(IL-12p70) therapy, i.p. injection, oral gavage or diet admix): anti-tumor efficacy was demonstrated
